The test system of the assay is PDE4. The assay can be described thus: PDE4 inhibition, scintillation proximity assay (SPA).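 Also: A below 100 nM B 100 to below 1000 nM C 1000 nM or more.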 The assay is classed as biochemical. The following applies: scintillation proximity assay (SPA); evaluated as classes A, B, C; read-out: PDE4 Inhibitory Activity (concentration for the inhibition rate of 50%). The method in brief:
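Scintillation proximity read-out: [2,8-3H]-cAMP hydrolysis by PDE4 ran 120 min at room temperature in Tris-HCl pH 7.4 buffer with 8.3 mM MgCl2, 1.7 mM EGTA and 3 mg/mL BSA. Bead-bound product (YSi-SPA with ZnSO4, 15 min) counted; blank lacks enzyme, control has DMSO only.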
(Scintillation proximity formats need no separation of bound from free tracer.)
As for `COC(C)c1cc(-c2nccs2)c2oc(N3CC4CC(C3)N4)nc2c1` (stereo not shown) [Example 111, 2-(3,6-Diazabicyclo[3.1.1]heptan-3-yl)-5-(1-methoxyethyl)-7-(thiazol-2-yl)benzo[d]oxazole], the IC50 was < 100 nM.

`CCOC(=O)c1ccc(-c2nccs2)c2oc(N3CC4CCC(C3)N4)nc12` [Example 112, Ethyl 2-(3,8-diazabicyclo[3.2.1]octan-3-yl)-7-(thiazol-2-yl) benzo[d]oxazole-4-carboxylate]: the IC50 is < 100 nM.

As for `CCOC(=O)c1ccc(-c2nccs2)c2oc(N3CC4CC(C3)N4)nc12` [Example 113, Ethyl 2-(3,6-diazabicyclo[3.1.1]heptan-3-yl)-7-(thiazol-2-yl)benzo[d]oxazole-4-carboxylate], the IC50 is < 100 nM.

`CCOC(=O)c1ccc(-c2nccs2)c2oc(N3CC4CCCC(C3)N4)nc12` [Example 114, Ethyl 2-(3,9-diazabicyclo[3.3.1]nonan-3-yl)-7-(thiazol-2-yl) benzo[d]oxazole-4-carboxylate]: the IC50 is < 100 nM.

For `CN(C)C(=O)c1ccc(-c2nccs2)c2oc(N3CC4CCC(C3)N4)nc12` [Example 115, 2-(3,8-Diazabicyclo[3.2.1]octan-3-yl)-N,N-dimethyl-7-(thiazol-2-yl)benzo[d]oxazole-4-carboxamide], the IC50 is < 100 nM.

For the molecule `O=C(c1ccc(-c2nccs2)c2oc(N3CC4CCC(C3)N4)nc12)N1CCOCC1` [Example 116, (2-(3,8-Diazabicyclo[3.2.1]octan-3-yl)-7-(thiazol-2-yl)benzo[d]oxazol-4-yl)(morpholino)methanone], the IC50 was < 100 nM.

`O=C(c1ccc(-c2nccs2)c2oc(N3CC4CCC(C3)N4)nc12)N1CCCCC1` [Example 117, (2-(3,8-Diazabicyclo[3.2.1]octan-3-yl)-7-(thiazol-2-yl)benzo[d]oxazol-4-yl)(piperidin-1-yl)methanone]: the IC50 was < 100 nM.

As for `OC(c1ccc(-c2nccs2)c2oc(N3CC4CCC(C3)N4)nc12)C(F)(F)F` (stereo not shown) [Example 118, 1-(2-(3,8-Diazabicyclo[3.2.1]octan-3-yl)-7-(thiazol-2-yl)benzo[d]oxazol-4-yl)-2,2,2-trifluoroethan-1-ol], the IC50 was < 100 nM.

`OC(c1ccc(-c2nccs2)c2oc(N3CC4CCC(C3)N4)nc12)C(F)(F)F` (stereo not shown) [Example 119, 1-(2-(3,8-Diazabicyclo[3.2.1]octan-3-yl)-7-(thiazol-2-yl)benzo[d]oxazol-4-yl)-2,2,2-trifluoroethan-1-ol]: the IC50 is < 100 nM.

As for `OC(c1ccc(-c2nccs2)c2oc(N3CC4CC(C3)N4)nc12)C(F)(F)F` (stereo not shown) [Example 120, 1-(2-(3,6-Diazabicyclo[3.1.1]heptan-3-yl)-7-(thiazol-2-yl)benzo[d]oxazol-4-yl)-2,2,2-trifluoroethan-1-ol], the IC50 was < 100 nM.

For the molecule `OC(c1ccc(-c2nccs2)c2oc(N3CC4CC(C3)N4)nc12)C(F)(F)F` (stereo not shown) [Example 121, 1-(2-(3,6-Diazabicyclo[3.1.1]heptan-3-yl)-7-(thiazol-2-yl)benzo[d]oxazol-4-yl)-2,2,2-trifluoroethan-1-ol], the IC50 is < 100 nM.

In the case of `COC(c1ccc(-c2nccs2)c2oc(N3CC4CC(C3)N4)nc12)C(F)(F)F` (stereo not shown) [Example 122, 2-(3,6-Diazabicyclo[3.1.1]heptan-3-yl)-7-(thiazol-2-yl)-4-(2,2,2-trifluoro-1-methoxyethyl)benzo[d]oxazole], the IC50 was < 100 nM.

On to `COC(c1ccc(-c2nccs2)c2oc(N3CC4CC(C3)N4)nc12)C(F)(F)F` (stereo not shown) [Example 123, 2-(3,6-Diazabicyclo[3.1.1]heptan-3-yl)-7-(thiazol-2-yl)-4-(2,2,2-trifluoro-1-methoxyethyl)benzo[d]oxazole], for which the IC50 was < 100 nM.

On to `CC(O)c1ccc(-c2nccs2)c2oc(N3CC4CCC(C3)N4)nc12` (stereo not shown) [Example 124, 1-(2-(3,8-Diazabicyclo[3.2.1]octan-3-yl)-7-(thiazol-2-yl)benzo[d]oxazol-4-yl)ethan-1-ol], for which the IC50 is < 100 nM.

As for `OC(c1ccc(-c2nccs2)c2oc(N3CC4CC(C3)N4)nc12)C(F)F` (stereo not shown) [Example 125, 1-(2-(3,6-Diazabicyclo[3.1.1]heptan-3-yl)-7-(thiazol-2-yl)benzo[d]oxazol-4-yl)-2,2-difluoroethan-1-ol], the IC50 was < 100 nM.

Take `CC(O)(c1ccc(-c2nccs2)c2oc(N3CC4CC(C3)N4)nc12)C(F)F` (stereo not shown) [Example 126, 2-(2-(3,6-Diazabicyclo[3.1.1]heptan-3-yl)-7-(thiazol-2-yl)benzo[d]oxazol-4-yl)-1,1-difluoropropan-2-ol]: the IC50 was < 100 nM.

Take `CC(C)(O)COC(c1ccc(-c2nccs2)c2oc(N3CC4CC(C3)N4)nc12)C(F)F` (stereo not shown) [Example 127, 1-(1-(2-(3,6-Diazabicyclo[3.1.1]heptan-3-yl)-7-(thiazol-2-yl)benzo[d]oxazol-4-yl)-2,2-difluoroethoxy)-2-methylpropan-2-ol]: the IC50 was < 100 nM.

Consider `OC(c1ccc(-c2nccs2)c2oc(N3CC4CCC(C3)N4)nc12)C(F)F` (stereo not shown) [Example 128, 1-(2-(3,8-Diazabicyclo[3.2.1]octan-3-yl)-7-(thiazol-2-yl)benzo[d]oxazol-4-yl)-2,2-difluoroethan-1-ol], for which the IC50 is < 100 nM.

Regarding `CC(O)(c1ccc(-c2nccs2)c2oc(N3CC4CCC(C3)N4)nc12)C(F)F` (stereo not shown) [Example 129, 2-(2-(3,8-Diazabicyclo[3.2.1]octan-3-yl)-7-(thiazol-2-yl)benzo[d]oxazol-4-yl)-1,1-difluoropropan-2-ol], the IC50 is < 100 nM.

Regarding `COC(c1ccc(-c2nccs2)c2oc(N3CC4CC(C3)N4)nc12)C(F)F` (stereo not shown) [Example 130, 2-(3,6-Diazabicyclo[3.1.1]heptan-3-yl)-4-(2,2-difluoro-1-methoxyethyl)-7-(thiazol-2-yl)benzo[d]oxazole], the IC50 was < 100 nM.

As for `COC(c1ccc(-c2nccs2)c2oc(N3CC4CCC(C3)N4)nc12)C(F)F` (stereo not shown) [Example 131, 2-(3,8-Diazabicyclo[3.2.1]octan-3-yl)-4-(2,2-difluoro-1-methoxyethyl)-7-(thiazol-2-yl)benzo[d]oxazole], the IC50 was < 100 nM.

Turning to `OCc1ccc(-c2nccs2)c2oc(N3CC4CCC(C3)N4)nc12` [Example 132, (2-(3,8-Diazabicyclo[3.2.1]octan-3-yl)-7-(thiazol-2-yl)benzo[d]oxazol-4-yl)methanol], the IC50 is < 100 nM.

Take `OCc1ccc(-c2nccs2)c2oc(N3CC4CC(C3)N4)nc12` [Example 133, (2-(3,6-Diazabicyclo[3.1.1]heptan-3-yl)-7-(thiazol-2-yl)benzo[d]oxazol-4-yl)methanol]: the IC50 is < 100 nM.

As to `OCc1ccc(-c2nccs2)c2oc(N3CC4CCCC(C3)N4)nc12` [Example 134, (2-(3,9-Diazabicyclo[3.3.1]nonan-3-yl)-7-(thiazol-2-yl)benzo[d]oxazol-4-yl)methanol], the IC50 is < 100 nM.

On to `OC(c1cc(-c2nccs2)c2oc(N3CC4CC(C3)N4)nc2c1)C(F)(F)F` (stereo not shown) [Example 135, 1-(2-(3,6-Diazabicyclo[3.1.1]heptan-3-yl)-7-(thiazol-2-yl)benzo[d]oxazol-5-yl)-2,2,2-trifluoroethan-1-ol], for which the IC50 is < 100 nM.

For the molecule `OC(c1cc(-c2nccs2)c2oc(N3CC4CCCC(C3)N4)nc2c1)C(F)(F)F` (stereo not shown) [Example 136, 1-(2-(3,9-Diazabicyclo[3.3.1]nonan-3-yl)-7-(thiazol-2-yl)benzo[d]oxazol-5-yl)-2,2,2-trifluoroethan-1-ol], the IC50 is < 100 nM.

As to `OC(c1cc(-c2nccs2)c2oc(N3CC4CCC(C3)N4)nc2c1)C(F)(F)F` (stereo not shown) [Example 138, 1-(2-(3,8-Diazabicyclo[3.2.1]octan-3-yl)-7-(thiazol-2-yl)benzo[d]oxazol-5-yl)-2,2,2-trifluoroethan-1-ol], the IC50 was < 100 nM.

On to `OC(c1cc(-c2nccs2)c2oc(N3CC4CCC(C3)N4)nc2c1)C(F)(F)F` (stereo not shown) [Example 139, 1-(2-(3,8-Diazabicyclo[3.2.1]octan-3-yl)-7-(thiazol-2-yl)benzo[d]oxazol-5-yl)-2,2,2-trifluoroethan-1-ol], for which the IC50 is < 100 nM.

Consider `OC(c1cc(-n2cccn2)c2oc(N3CC4CCC(C3)N4)nc2c1)C(F)(F)F` (stereo not shown) [Example 140, 1-(2-(3,8-Diazabicyclo[3.2.1]octan-3-yl)-7-(1H-pyrazol-1-yl)benzo[d]oxazol-5-yl)-2,2,2-trifluoroethan-1-ol], for which the IC50 is < 100 nM.

For `CC(=O)OC(c1cc(-c2nccs2)c2oc(N3CC4CCC(C3)N4)nc2c1)C(F)(F)F` (stereo not shown) [Example 141, 1-(2-(3,8-Diazabicyclo[3.2.1]octan-3-yl)-7-(thiazol-2-yl)benzo[d]oxazol-5-yl)-2,2,2-trifluoroethyl acetate], the IC50 is < 100 nM.

For `COC(c1cc(-c2nccs2)c2oc(N3CC4CCC(C3)N4)nc2c1)C(F)(F)F` (stereo not shown) [Example 142, 2-(3,8-Diazabicyclo[3.2.1]octan-3-yl)-7-(thiazol-2-yl)-5-(2,2,2-trifluoro-1-methoxyethyl)benzo[d]oxazole], the IC50 was < 100 nM.

For `COC(c1cc(-c2nccs2)c2oc(N3CC4CCC(C3)N4)nc2c1)C(F)(F)F` (stereo not shown) [Example 143, 2-(3,8-Diazabicyclo[3.2.1]octan-3-yl)-7-(thiazol-2-yl)-5-(2,2,2-trifluoro-1-methoxyethyl)benzo[d]oxazole], the IC50 is < 100 nM.

With `COC(c1cc(-c2nccs2)c2oc(N3CC4CC(C3)N4)nc2c1)C(F)(F)F` (stereo not shown) [Example 144, 2-(3,6-Diazabicyclo[3.1.1]heptan-3-yl)-7-(thiazol-2-yl)-5-(2,2,2-trifluoro-1-methoxyethyl)benzo[d]oxazole], the IC50 was < 100 nM.

As for `COC(c1cc(-c2nccs2)c2oc(N3CC4CCCC(C3)N4)nc2c1)C(F)(F)F` (stereo not shown) [Example 145, 2-(3,9-Diazabicyclo[3.3.1]nonan-3-yl)-7-(thiazol-2-yl)-5-(2,2,2-trifluoro-1-methoxyethyl)benzo[d]oxazole], the IC50 is < 100 nM.

The values are drawn from US10669283B2, “Compound and pharmacologically acceptable salt thereof” (MEIJI SEIKA PHARMA CO., LTD., priority 2016, dated 2020).
